Measurements reported in patent US6413607B1, “Cyanine dyes” (Kabushiki Kaisha Hayashibara Seibutsu Kagaku Kenkyujo, priority 1999, dated 2002).
Where two headings read alike, the source gives them in different places.

Assays:
Format in all cases: physicochemical
[1] = Solubility of cyanine dye in TFP; conditions: in TFP at 20° C.
Experimental: For the cyanine dyes in Table 1, they were measured for solubility in TFP at 20° C.
When coating over the substrates for optical recording media, the cyanine dyes are generally prepared into 0.1-10 w/w % solutions.

[2] = Decomposition point by DTA and TGA; conditions: for Decomposability at temperatures around decomposition point / Rapidity of decomposition among Chemical Formulae 1, 4 and 6 to 8: in words; for Decomposition point (° C.): temperature increase 10° C./min
Excerpt: An adequate amount of either of the cyanine dyes in Table 1 as a test specimen was placed in a vessel and subjected to conventional differential thermal analysis (hereinafter abbreviated as “DTA”) and thermogravimetric analysis (hereinafter abbreviated as “TGA”) using “MODEL TG/DTA 220”, a digital thermo analyzer commercialized by Seiko Instruments Inc., Tokyo, Japan, to determine the melting point, i.e., a temperature at which the cyanine dyes as test specimens begin to absorb heat on […], and to determine the decomposition point, i.e., a temperature at which the cyanine dyes as test specimens begin to lose weight on […]. In parallel, conventional related compounds represented by Chemical Formulae 33 and 34 were analyzed similarly as above. FIGS. 2 and 3 are respectively the results of the cyanine dye represented by Chemical Formula 4 of the present invention and conventional related compound represented by Chemical Formula 34. In DTA and TGA, the environmental temperature was set to an increasing temperature mode at a rate of 10° C./min.
As evident from Table 1 and FIGS. 2 and 3, all the conventional related compounds had melting points and decomposition points which were different from each other, and very slowly decomposed at temperatures around their decomposition points. […] Most specifically, conventional known compounds had both melting points and decomposition points which were different from each other, i.e., the difference ranged from 17 to 108° C., while most of the cyanine dyes of the present invention had decomposition points which were undistinguishable from their melting points or had only the decomposition points.

[3] = Light characteristics: visible absorption spectrum in methanol and as thin layer over glass; conditions: for Maximum absorption (nm) CH3OH: dissolved in methanol; for Maximum absorption (nm) Thin Layer: formed into layer over glass; for Shift of absorption maximum compared with conventional related compounds: thin layer, in words
Experimental: The cyanine dyes as listed in Table 1 of the present invention and known compounds represented by Chemical Formulae 33 and 34 as controls were measured for visible absorption spectrum when dissolved in methanol and formed into layers over glasses.

[4] = Decomposition rate: differential calorimetric curve (DSC), half value width; conditions: for Calorific value / Decomposition initiating point / Decomposition peak point / Half value width: DSC, 10° C./min; for Calorific value / Decomposition initiating point / Decomposition peak point: nitrogen atmosphere; for Half value width: width of decomposition peak at half calorific value, nitrogen
Experimental: For the cyanine dyes represented by Chemical Formulae 4, 6 and 8 of the present invention, they were in a usual manner examined for differential calorimetric curve when heated under an increasing temperature rate of 10° C./min and nitrogen atmospheric conditions using “MODEL DSC220U”, a digital thermo analyzer commercialized by Seiko Instruments Inc., Tokyo, Japan. In parallel, conventional cyanine dye represented by Chemical Formula 33 was examined for differential calorimetric curve similarly as above. FIGS. 4 and 5 are respectively differential calorimetric curves for the cyanine dyes represented by Chemical Formulae 4 and 33.
Based on the results of the differential calorimetric curves, the half calorific vallues at descomposition peaks for each cyanine dyes were determined, and the thermal difference between the two points, having the determined half calorific values at both ends of each descomposition peaks (hereinafter designated as “a half value width”), was determined.
As evident from the results in Table 2 and FIGS. 4 and 5, the cyanine dyes of the present invention instantly and promptly decomposed in spite of their substantially the same calorific-values as compared with conventional one. […] Similarly as in conventional related compounds represented by Formulae 33 and 34, dyes with a relatively-slow decomposition rate are substantially difficult to form stable minute pits at a relatively-high density on a restricted recording surface of high-density optical recording media such as DVD-Rs, as mentioned above. Varying depending on glass transition temperature of substrate, when used as a light absorbent in optical recording media, dyes with a lower decomposition point can be generally used to write information by using a lower-power laser beam as a merit, however, as a demerit, when exposed to laser beam for a relatively-long period of time on reading, the dyes tend to accumulate heat and deform parts around pits and other parts free of pit on recording surfaces, resulting in large jitters and reading errors. The cyanine dyes of the present invention substantially absorb a visible light with a wavelength around 650 nm when formed into a thin layer, have decomposition points which are undistinguishable from their melting points or only have the decomposition points of relatively-high temperatures, and have an outstandingly-high decomposition rate at around the decomposition points. These characteristics mean that high-density optical recording media, having a relatively-small jitter, insubstantial reading error, and satisfactory stability of exposure to environmental light such as reading light and natural light, can be obtained by using the cyanine dyes of the present invention as light absorbents. The reason of why the half value width was employed as an index for the decomposability in this example was due to the fact that it can effectively evaluate the decomposition rate of test specimens.

Row | SMILES | Solubility ([1]; organic solvent or mixture, read-out: Solubility) [mg/mL] | Decomposability at temperatures around decomposition point [2] | Rapidity of decomposition among Chemical Formulae 1, 4 and 6 to 8 [2] | Maximum absorption (nm) CH3OH [3] [nm] | Maximum absorption (nm) Thin Layer [3] [nm] | Shift of absorption maximum compared with conventional related compounds [3] | Solubility [1] [mg/mL] | Decomposition point (° C.) [2] [°C] | Calorific value [4] [mJ/mg] | Decomposition initiating point [4] [°C] | Decomposition peak point [4] [°C] | Half value width [4] [°C] | Half value width as level of that of conventional cyanine dye ([4]; relative to Chemical Formula 33)
1 | CN1C(=CC=CC2=[N+](C)c3ccc([N+](=O)[O-])cc3C2(C)C)C(C)(C)c2c1ccc1ccccc21 [Chemical Formula 1] | 36 | instantly decomposed at once | decomposed most rapidly | 573 | 609 | shifted their absorption maxima to longer wavelengths by a large margin |  |  |  |  |  |  | 
2 | CCCCN1C(=CC=CC2=[N+](C)c3ccc(S(=O)(=O)N(CC)CC)cc3C2(C)C)C(C)(C)c2c1ccc1ccccc21.F[P-](F)(F)(F)(F)F [Chemical Formula 23] |  |  |  | 591 | 591 |  | >200 | 273.5 |  |  |  |  | 
3 | CCN1C(=CC=CC2=[N+](CC)c3ccc(S(=O)(=O)N(CC)CC)cc3C2(C)C)C(C)(C)c2c1ccc1ccccc21.[O-][Cl+3]([O-])([O-])[O-] [Chemical Formula 27] |  |  |  | 571 | 592 |  | >200 |  |  |  |  |  | 
4 | CCCCN1C(=CC=CC2=[N+](C)c3ccc(S(=O)(=O)N(CC)CC)cc3C2(C)C)C(C)(C)c2c1ccc1ccccc21.O=[N+]([O-])c1ccc2c(c1)N=Nc1c(ccc3ccccc13)[O][Ni-]1([O]2)[O]c2ccc([N+](=O)[O-])cc2N=Nc2c(ccc3ccccc23)[O]1 [Chemical Formula 26] |  |  |  | 570 | 594 |  | 127 | 257.3 |  |  |  |  | 
5 | CCCCN1/C(=C/C=C/C2=[N+](CCCC)c3ccc(C)cc3C2(C)C)C(C)(C)c2c1ccc1ccccc21 [Chemical Formula 34, reference compound] |  |  |  | 574 | 599 |  |  | 267 |  |  |  |  | 
6 | CCCCN1C(=CC=CC2=[N+](CCCC)c3ccc([N+](=O)[O-])cc3C2(C)C)C(C)(C)c2c1ccc1ccccc21.[O-][Cl+3]([O-])([O-])[O-] [Chemical Formula 8] |  |  |  | 577 | 609 | shifted their absorption maxima to longer wavelengths by a large margin | 245 | 262.4 | 1663 | 249.9 | 273.5 | 32.2 | 
7 | CCCCN1C(=CC=CC2=[N+](CCC)c3ccc([N+](=O)[O-])cc3C2(C)C)C(C)(C)c2c1ccc1ccccc21.[O-][Cl+3]([O-])([O-])[O-] [Chemical Formula 7] |  |  | decomposed most rapidly | 577 | 609 | shifted their absorption maxima to longer wavelengths by a large margin | 210 | 261.2 |  |  |  |  | 
8 | CCCN1C(=CC=CC2=[N+](CCC)c3ccc([N+](=O)[O-])cc3C2(C)C)C(C)(C)c2c1ccc1ccccc21.[O-][Cl+3]([O-])([O-])[O-] [Chemical Formula 6] |  |  | decomposed most rapidly | 578 | 609 | shifted their absorption maxima to longer wavelengths by a large margin | 164 |  | 1827 | 279.5 | 285.5 | 13.2 | 
9 | CCCCN1C(=CC=CC2=[N+](C)c3ccc(S(=O)(=O)N(CC)CC)cc3C2(C)C)C(C)(C)c2c1ccc1ccccc21.CCN(CC)c1ccc2c(c1)[O][Co-]1([O]c3ccc([N+](=O)[O-])cc3N=N2)[O]c2ccc([N+](=O)[O-])cc2N=Nc2ccc(N(CC)CC)cc2[O]1 [Chemical Formula 24] |  |  |  | 538 | 556 |  | 197 |  |  |  |  |  | 
10 | CCCCN1C(=CC=CC2=[N+](C)c3ccc([N+](=O)[O-])cc3C2(C)C)C(C)(C)c2c1ccc1ccccc21.CCN(CC)c1ccc2c(c1)[O][Co-]1([O]c3ccc([N+](=O)[O-])cc3N=N2)[O]c2ccc([N+](=O)[O-])cc2N=Nc2ccc(N(CC)CC)cc2[O]1 [Chemical Formula 3] |  |  |  | 540 | 557 |  | 22 | 271.3 |  |  |  |  | 
11 | CCCCN1/C(=C/C=C/C2=[N+](CCCC)c3ccccc3C2(C)C)C(C)(C)c2c1ccc1ccccc21 [Chemical Formula 33, reference compound] |  |  |  | 568 | 600 |  |  | 268.1 | 1467 | 255.4 | 297.4 | 49.9 | 
12 | CCN1C(=CC=CC2=[N+](CC)c3ccc([N+](=O)[O-])cc3C2(C)C)C(C)(C)c2c1ccc1ccccc21.[O-][Cl+3]([O-])([O-])[O-] [Chemical Formula 4] |  | instantly decomposed at once | decomposed most rapidly | 576 | 609 | shifted their absorption maxima to longer wavelengths by a large margin | 126 |  | 1826 | 295.8 | 298.6 | 7.7 | ⅙
13 | CCN1C(=CC=CC2=[N+](CC)c3ccc([N+](=O)[O-])cc3C2(C)C)C(C)(C)c2ccc3ccccc3c21.[O-][Cl+3]([O-])([O-])[O-] [Chemical Formula 15] |  |  |  | 562 | 617 | shifted their absorption maxima to longer wavelengths by a large margin | 229 | 270.7 |  |  |  |  | 
